{
  "source": "paper PMC9719519",
  "about": "“Non-classical ferroptosis inhibition by a small molecule targeting PHB2” (Nature Communications, 2022)",
  "assay_in_all_cases": "biochemical",
  "parameters_in_all_cases": "Eurofins recombinant human kinase profiling, remaining kinase activity as % of control, 10 uM ATP",
  "settings_in_all_cases": "ATP 10 uM; read-out: %Ctrl@10 μM",
  "key": {"MST1(h)": {"target": "T1, MST1(h) (Homo sapiens, UniProt Q13043)", "T1 construct": "gene STK4", "source_text": "(§1) To rapidly determine the biological target of YL-939, we first tested the activity of YL-939 against a panel of 401 recombinant human protein kinases by using the kinase profiling assay provided by Eurofins, since kinases are often the key components in various signal pathways[35],[36]. […] We then carried out affinity-based proteome profiling assay (ABPP) coupled with bioimaging to identify the biological target of YL-939 (Fig. 4A). To this end, we designed and synthesized a photoaffinity probe, YL-939-1 (Fig. 4A and Supplementary Fig. 5), which is YL-939 attached by a photo-crosslinker (L3) that contains a photo-reactive group diazirine and a clickable alkyne handle."}, "PKCδ(h)": {"target": "T2, PKCδ(h) (Homo sapiens, UniProt Q05655)", "T2 construct": "gene PRKCD", "source_text": "as §1"}, "DDR2(h)": {"target": "DDR2(h) (Homo sapiens, UniProt Q16832)", "source_text": "as §1"}, "SRPK2(h)": {"target": "SRPK2(h) (Homo sapiens, UniProt P78362)", "sequence (P78362 whole entry)": "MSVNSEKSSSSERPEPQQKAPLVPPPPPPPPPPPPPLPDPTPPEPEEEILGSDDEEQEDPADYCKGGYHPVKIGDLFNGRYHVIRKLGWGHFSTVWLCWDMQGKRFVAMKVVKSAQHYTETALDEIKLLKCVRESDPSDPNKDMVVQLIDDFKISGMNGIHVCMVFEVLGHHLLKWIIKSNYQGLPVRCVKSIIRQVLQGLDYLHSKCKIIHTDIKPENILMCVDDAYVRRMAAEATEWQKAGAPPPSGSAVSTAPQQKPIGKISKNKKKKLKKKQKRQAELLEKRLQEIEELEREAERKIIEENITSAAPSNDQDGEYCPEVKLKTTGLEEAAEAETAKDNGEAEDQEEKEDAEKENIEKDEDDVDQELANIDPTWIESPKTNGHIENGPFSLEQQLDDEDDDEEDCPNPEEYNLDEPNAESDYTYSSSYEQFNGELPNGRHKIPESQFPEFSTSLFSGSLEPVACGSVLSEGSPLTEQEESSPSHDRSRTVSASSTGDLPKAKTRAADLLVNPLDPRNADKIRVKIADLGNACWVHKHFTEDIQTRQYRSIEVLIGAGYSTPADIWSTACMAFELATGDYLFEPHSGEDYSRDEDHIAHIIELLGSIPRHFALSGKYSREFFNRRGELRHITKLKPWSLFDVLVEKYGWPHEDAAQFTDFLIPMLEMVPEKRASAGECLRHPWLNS", "source_text": "as §1"}, "PKAcβ(h)": {"target": "T3, PKAcβ(h) (Homo sapiens, UniProt P22694)", "T3 construct": "gene PRKACB", "source_text": "as §1"}, "MEK2(h)": {"target": "T4, MEK2(h) (Homo sapiens, UniProt P36507)", "T4 construct": "gene MAP2K2", "source_text": "as §1"}, "Axl(h)": {"target": "Axl(h) (Homo sapiens, UniProt P30530)", "sequence (P30530 whole entry)": "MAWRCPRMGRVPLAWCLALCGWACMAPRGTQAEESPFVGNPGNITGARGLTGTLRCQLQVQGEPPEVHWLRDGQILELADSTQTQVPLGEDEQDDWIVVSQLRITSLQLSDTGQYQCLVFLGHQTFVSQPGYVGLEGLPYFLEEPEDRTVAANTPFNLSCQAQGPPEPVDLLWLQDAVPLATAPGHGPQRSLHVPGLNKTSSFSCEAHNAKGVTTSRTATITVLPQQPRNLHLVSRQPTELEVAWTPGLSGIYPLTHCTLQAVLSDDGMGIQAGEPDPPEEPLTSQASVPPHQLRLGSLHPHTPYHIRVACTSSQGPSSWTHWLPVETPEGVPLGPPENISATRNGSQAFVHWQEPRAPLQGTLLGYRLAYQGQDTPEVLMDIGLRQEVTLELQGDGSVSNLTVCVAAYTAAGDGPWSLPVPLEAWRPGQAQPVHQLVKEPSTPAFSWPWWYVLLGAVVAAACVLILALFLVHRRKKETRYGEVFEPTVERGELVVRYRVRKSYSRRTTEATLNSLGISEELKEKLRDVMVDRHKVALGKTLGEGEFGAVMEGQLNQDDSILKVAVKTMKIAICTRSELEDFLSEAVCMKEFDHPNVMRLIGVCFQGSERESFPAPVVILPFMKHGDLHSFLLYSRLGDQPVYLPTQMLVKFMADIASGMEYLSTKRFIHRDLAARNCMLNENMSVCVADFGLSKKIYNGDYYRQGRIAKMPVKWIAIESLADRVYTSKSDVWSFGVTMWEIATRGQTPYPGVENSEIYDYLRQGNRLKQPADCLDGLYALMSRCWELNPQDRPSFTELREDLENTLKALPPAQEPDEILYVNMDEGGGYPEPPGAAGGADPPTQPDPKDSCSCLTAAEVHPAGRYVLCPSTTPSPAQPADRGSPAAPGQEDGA", "source_text": "as §1"}, "CaMKIIβ(h)": {"target": "T5, CaMKIIβ(h) (Homo sapiens, UniProt Q13554)", "T5 construct": "gene CAMK2B", "source_text": "as §1"}, "NEK9(h)": {"target": "NEK9(h) (Homo sapiens, UniProt Q8TD19)", "sequence (Q8TD19 whole entry)": "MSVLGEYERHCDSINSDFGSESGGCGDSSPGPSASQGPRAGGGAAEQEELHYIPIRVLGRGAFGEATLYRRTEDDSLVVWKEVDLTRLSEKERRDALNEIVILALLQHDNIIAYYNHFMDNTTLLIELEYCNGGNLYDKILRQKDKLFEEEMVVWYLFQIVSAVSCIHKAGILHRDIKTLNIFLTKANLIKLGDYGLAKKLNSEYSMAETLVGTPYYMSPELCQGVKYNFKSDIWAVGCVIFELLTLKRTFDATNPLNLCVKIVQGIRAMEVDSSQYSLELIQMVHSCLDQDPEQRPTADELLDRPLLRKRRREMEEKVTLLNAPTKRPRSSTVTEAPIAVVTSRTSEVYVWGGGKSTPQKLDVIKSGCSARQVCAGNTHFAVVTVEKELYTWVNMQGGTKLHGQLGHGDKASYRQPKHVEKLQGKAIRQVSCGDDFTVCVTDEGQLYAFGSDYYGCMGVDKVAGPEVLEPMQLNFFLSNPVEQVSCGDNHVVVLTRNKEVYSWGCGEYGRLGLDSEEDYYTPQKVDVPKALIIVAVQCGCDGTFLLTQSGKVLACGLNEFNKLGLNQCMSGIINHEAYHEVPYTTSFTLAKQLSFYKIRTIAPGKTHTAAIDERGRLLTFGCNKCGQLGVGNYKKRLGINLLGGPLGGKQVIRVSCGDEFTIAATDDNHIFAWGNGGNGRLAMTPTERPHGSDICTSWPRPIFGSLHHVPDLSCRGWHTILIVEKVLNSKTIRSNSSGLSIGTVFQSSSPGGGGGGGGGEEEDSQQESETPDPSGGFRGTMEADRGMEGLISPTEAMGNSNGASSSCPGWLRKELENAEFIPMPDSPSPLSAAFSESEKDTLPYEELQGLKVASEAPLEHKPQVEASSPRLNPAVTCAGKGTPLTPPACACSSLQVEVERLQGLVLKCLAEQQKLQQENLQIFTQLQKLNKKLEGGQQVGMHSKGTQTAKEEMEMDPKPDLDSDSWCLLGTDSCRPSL", "source_text": "as §1"}, "IR(h), activated": {"target": "T6, IR(h), activated (Homo sapiens, UniProt P06213)", "T6 construct": "gene INSR", "source_text": "as §1"}, "Plk4(h)": {"target": "Plk4(h) (Homo sapiens, UniProt O00444)", "sequence (O00444 whole entry)": "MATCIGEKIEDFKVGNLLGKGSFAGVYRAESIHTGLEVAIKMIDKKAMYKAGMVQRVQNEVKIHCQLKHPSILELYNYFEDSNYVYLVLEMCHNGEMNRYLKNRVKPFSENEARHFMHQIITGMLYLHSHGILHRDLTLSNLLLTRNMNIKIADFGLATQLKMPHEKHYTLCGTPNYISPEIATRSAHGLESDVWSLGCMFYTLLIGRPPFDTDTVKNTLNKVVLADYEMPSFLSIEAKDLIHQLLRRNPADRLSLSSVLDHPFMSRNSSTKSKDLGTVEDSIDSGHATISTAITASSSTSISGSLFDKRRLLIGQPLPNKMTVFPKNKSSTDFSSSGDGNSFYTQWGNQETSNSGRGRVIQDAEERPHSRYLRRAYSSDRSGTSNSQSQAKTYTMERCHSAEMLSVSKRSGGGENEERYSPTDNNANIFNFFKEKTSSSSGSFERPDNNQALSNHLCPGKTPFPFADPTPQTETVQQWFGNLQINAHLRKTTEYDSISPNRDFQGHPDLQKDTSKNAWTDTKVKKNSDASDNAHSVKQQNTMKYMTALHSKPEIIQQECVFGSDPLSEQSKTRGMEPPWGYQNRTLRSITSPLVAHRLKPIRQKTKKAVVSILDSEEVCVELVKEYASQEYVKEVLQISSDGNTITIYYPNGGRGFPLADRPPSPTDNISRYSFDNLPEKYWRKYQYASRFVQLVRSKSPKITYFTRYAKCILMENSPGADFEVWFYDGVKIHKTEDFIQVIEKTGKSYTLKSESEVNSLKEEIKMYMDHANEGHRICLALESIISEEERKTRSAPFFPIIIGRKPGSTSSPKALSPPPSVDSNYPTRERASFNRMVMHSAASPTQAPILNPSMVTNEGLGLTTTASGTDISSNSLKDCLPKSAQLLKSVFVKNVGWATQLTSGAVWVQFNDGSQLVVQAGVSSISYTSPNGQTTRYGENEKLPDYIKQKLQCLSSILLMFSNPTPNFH", "source_text": "as §1"}, "PRKG2(h)": {"target": "PRKG2(h) (Homo sapiens, UniProt Q13237)", "sequence (Q13237 whole entry)": "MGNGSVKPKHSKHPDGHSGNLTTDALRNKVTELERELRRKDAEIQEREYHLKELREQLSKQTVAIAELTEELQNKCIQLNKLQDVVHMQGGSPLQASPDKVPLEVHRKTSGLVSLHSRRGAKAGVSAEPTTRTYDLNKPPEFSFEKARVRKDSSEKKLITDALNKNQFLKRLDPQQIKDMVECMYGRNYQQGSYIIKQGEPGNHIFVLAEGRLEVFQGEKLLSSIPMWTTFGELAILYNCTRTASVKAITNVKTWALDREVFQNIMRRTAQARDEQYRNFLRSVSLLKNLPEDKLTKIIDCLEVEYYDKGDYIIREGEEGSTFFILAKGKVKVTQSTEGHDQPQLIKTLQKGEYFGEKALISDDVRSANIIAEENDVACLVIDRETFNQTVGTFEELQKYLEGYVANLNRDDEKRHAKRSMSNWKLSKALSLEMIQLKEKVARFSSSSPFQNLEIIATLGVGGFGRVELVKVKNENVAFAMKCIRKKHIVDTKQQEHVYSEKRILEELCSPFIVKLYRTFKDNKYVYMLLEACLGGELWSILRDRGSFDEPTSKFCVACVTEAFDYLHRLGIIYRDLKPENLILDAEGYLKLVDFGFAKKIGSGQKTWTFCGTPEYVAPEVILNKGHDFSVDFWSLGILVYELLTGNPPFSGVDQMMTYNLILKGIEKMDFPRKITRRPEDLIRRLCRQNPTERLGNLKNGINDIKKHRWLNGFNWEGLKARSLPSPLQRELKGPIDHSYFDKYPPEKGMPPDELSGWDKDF", "source_text": "as §1"}, "PKBβ(h)": {"target": "T7, PKBβ(h) (Homo sapiens, UniProt P31751)", "T7 construct": "gene AKT2", "source_text": "as §1"}, "PDK1(h)": {"target": "T8, PDK1(h) (Homo sapiens, UniProt O15530)", "T8 construct": "gene PDPK1", "source_text": "as §1"}, "LIMK1(h)": {"target": "LIMK1(h) (Homo sapiens, UniProt P53667)", "sequence (P53667 whole entry)": "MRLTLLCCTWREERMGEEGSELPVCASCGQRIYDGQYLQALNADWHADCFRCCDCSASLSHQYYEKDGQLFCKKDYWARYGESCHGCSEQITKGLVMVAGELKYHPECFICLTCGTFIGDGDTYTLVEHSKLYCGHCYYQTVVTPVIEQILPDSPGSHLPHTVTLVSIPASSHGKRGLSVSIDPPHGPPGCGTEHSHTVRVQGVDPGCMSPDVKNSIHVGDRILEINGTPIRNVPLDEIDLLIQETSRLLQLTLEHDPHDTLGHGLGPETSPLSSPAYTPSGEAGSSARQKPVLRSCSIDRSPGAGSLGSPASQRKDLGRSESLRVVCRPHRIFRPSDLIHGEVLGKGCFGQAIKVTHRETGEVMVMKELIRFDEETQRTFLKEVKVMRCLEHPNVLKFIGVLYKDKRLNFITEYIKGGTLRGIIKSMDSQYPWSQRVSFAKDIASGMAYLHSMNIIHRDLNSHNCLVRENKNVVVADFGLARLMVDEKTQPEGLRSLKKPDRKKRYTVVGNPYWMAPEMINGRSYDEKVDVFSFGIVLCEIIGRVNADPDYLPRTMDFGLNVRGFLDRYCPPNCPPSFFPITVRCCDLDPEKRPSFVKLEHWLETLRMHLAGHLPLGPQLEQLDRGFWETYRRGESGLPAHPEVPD", "source_text": "as §1"}, "TAO2(h)": {"target": "T9, TAO2(h) (Homo sapiens, UniProt Q9UL54)", "T9 construct": "gene TAOK2", "source_text": "as §1"}, "JAK3(h)": {"target": "JAK3(h) (Homo sapiens, UniProt P52333)", "source_text": "as §1"}, "GCN2(h)": {"target": "T10, GCN2(h) (Homo sapiens, UniProt Q9P2K8)", "T10 construct": "gene EIF2AK4", "source_text": "as §1"}, "JNK2α2(h)": {"target": "T11, JNK2α2(h) (Homo sapiens, UniProt P45984)", "T11 construct": "gene MAPK9; isoform alpha2", "source_text": "as §1"}, "Arg(h)": {"target": "T12, Arg(h) (Homo sapiens, UniProt P42684)", "T12 construct": "gene ABL2", "source_text": "as §1"}, "IGF-1R(h), activated": {"target": "T13, IGF-1R(h), activated (Homo sapiens, UniProt P08069)", "T13 construct": "gene IGF1R", "source_text": "as §1"}, "PhKγ2(h)": {"target": "T14, PhKγ2(h) (Homo sapiens, UniProt P15735)", "T14 construct": "gene PHKG2", "source_text": "as §1"}, "PDGFRα(D842V)(h)": {"target": "T15, PDGFRα(D842V)(h) (Homo sapiens, UniProt P16234, D842V)", "T15 construct": "gene PDGFRA", "source_text": "as §1"}},
  "data": [
    {"smiles": "C1=C(c2nc(-c3cnn(C4CCNCC4)c3)cn3cc(-c4ccccc4)nc23)CCOC1", "note": "[YL-939]", "values": [
      {"measurement": "remaining activity at 10 µM", "setting": "MST1(h)", "value": 91, "unit": "%"},
      {"measurement": "remaining activity at 10 µM", "setting": "PKCδ(h)", "value": 81, "unit": "%"},
      {"measurement": "remaining activity at 10 µM", "setting": "DDR2(h)", "value": 95, "unit": "%"},
      {"measurement": "remaining activity at 10 µM", "setting": "SRPK2(h)", "value": 87, "unit": "%"},
      {"measurement": "remaining activity at 10 µM", "setting": "PKAcβ(h)", "value": 94, "unit": "%"},
      {"measurement": "remaining activity at 10 µM", "setting": "MEK2(h)", "value": 89, "unit": "%"},
      {"measurement": "remaining activity at 10 µM", "setting": "Axl(h)", "value": 84, "unit": "%"},
      {"measurement": "remaining activity at 10 µM", "setting": "CaMKIIβ(h)", "value": 70, "unit": "%"},
      {"measurement": "remaining activity at 10 µM", "setting": "NEK9(h)", "value": 99, "unit": "%"},
      {"measurement": "remaining activity at 10 µM", "setting": "IR(h), activated", "value": 91, "unit": "%"},
      {"measurement": "remaining activity at 10 µM", "setting": "Plk4(h)", "value": 88, "unit": "%"},
      {"measurement": "remaining activity at 10 µM", "setting": "PRKG2(h)", "value": 97, "unit": "%"},
      {"measurement": "remaining activity at 10 µM", "setting": "PKBβ(h)", "value": 87, "unit": "%"},
      {"measurement": "remaining activity at 10 µM", "setting": "PDK1(h)", "value": 127, "unit": "%"},
      {"measurement": "remaining activity at 10 µM", "setting": "LIMK1(h)", "value": 86, "unit": "%"},
      {"measurement": "remaining activity at 10 µM", "setting": "TAO2(h)", "value": 90, "unit": "%"},
      {"measurement": "remaining activity at 10 µM", "setting": "JAK3(h)", "value": 91, "unit": "%"},
      {"measurement": "remaining activity at 10 µM", "setting": "GCN2(h)", "value": 67, "unit": "%"},
      {"measurement": "remaining activity at 10 µM", "setting": "JNK2α2(h)", "value": 72, "unit": "%"},
      {"measurement": "remaining activity at 10 µM", "setting": "Arg(h)", "value": 108, "unit": "%"},
      {"measurement": "remaining activity at 10 µM", "setting": "IGF-1R(h), activated", "value": 95, "unit": "%"},
      {"measurement": "remaining activity at 10 µM", "setting": "PhKγ2(h)", "value": 68, "unit": "%"},
      {"measurement": "remaining activity at 10 µM", "setting": "PDGFRα(D842V)(h)", "value": 113, "unit": "%"}
    ]}
  ]
}
